Data set [1] can be described thus: Storage and heat stability of FL118. Format: physicochemical.
Data set [2] has as its system cisplatin-resistant pancreatic cancer cells. The conditions noted are these: cited from earlier work.

Structures are written as SMILES.

For the molecule `CC[C@@]1(O)C(=O)OCc2c1cc1n(c2=O)Cc2cc3cc4c(cc3nc2-1)OCO4` [FL118], in data set [1] (60-80° C., spray-dry process, at least a period of time), the “stability at high temperature” value was “without any issues”. For the same molecule, the storage stability result in data set [1] (before and/or after formulation, room temperature or 4° C.) is listed as “highly stable”. Besides, in data set [2], the “activity on cisplatin-resistant pancreatic cancer cells” value is “preferentially targets and kills”; the “spheroid formation of pancreatic cancer stem cells” value was “inhibits”.

(Values after patent US12268682B2, “Anticancer drug FL118 formulation for treatment of human cancer” (CANGET BIOTEKPHARMA, LLC, priority 2019, dated 2025).)
